The text below walks through data of ChEMBL document CHEMBL5608197, “Optimization of pyrazolopyridine 4-carboxamides with potent antimalarial activity for which resistance is associated with the P. falciparum transporter ABCI3” (Eur J Med Chem, 2024).

Values after ≈ are worked out from the molar mass of the structure shown.

Data set [1] in a line: Cytotoxicity against human HepG2 cells assessed as inhibition of cell growth incubated for 48 hrs by CellTiter-Glo luminescence assay. It counts as toxicity, cell-based.
Data set [2] relates to Plasmodium falciparum. Description: Antiplasmodial activity against asexual blood stage of Plasmodium falciparum 3D7 assessed as inhibition of parasite growth incubated for 72 hrs by LDH assay. The following applies: 3D7, 72 h. It counts as functional, organism-based.
Data set [3] is described as follows: Lipophilicity, elogD of the compound in 1-Octanol/PBS at pH 7.4 at 7.5 uM incubated for 2 hrs by miniaturized shake flask method. It counts as physicochemical.
A short description of data set [4]: Intrinsic clearance in human liver microsomes at 1 uM measured for 60 mins by LC-MS/MS analysis. In kind it is ADME, Microsome. Conditions: read-out: CLH.
Data set [5] can be described thus: Aqueous solubility of the compound in PBS buffer at pH 7.4 at 200 uM incubated for 2 hrs under shaking condition by miniaturized shake flask method. It counts as physicochemical.
A short description of data set [6]: Intrinsic clearance in rat hepatocytes at 1 uM measured per million cells for 90 mins by LC-MS/MS analysis. The following applies: read-out: CLH. In kind it is ADME, cell-based, Hepatocyte.
Data set [7] has as its system Plasmodium falciparum. Description: Antiplasmodial activity against Plasmodium falciparum Dd2 infected in erythrocytes assessed as inhibition of parasite growth incubated for 72 hrs by [3H]hypoxanthine incorporation based microbeta counting analysis. In kind it is functional, organism-based. The following applies: Dd2, Erythrocyte.
Data set [8] relates to Plasmodium falciparum. In words: Antiplasmodial activity against multidrug-resistant Plasmodium falciparum Dd2 harboring DHODH-C276F mutant infected in erythrocytes assessed as inhibition of parasite growth incubated for 72 hrs by [3H]hypoxanthine incorporation based microbeta counting analysis. It counts as functional, organism-based. The following applies: Dd2, Erythrocyte.

Consider `CC(C)(C)n1nc(-c2ccccc2)c2c(C(=O)N3CCOc4ccccc43)cc(C3CC3)nc21`, for which the CC50 at 48 h in data set [1] was above 40000 nM. The EC50 in data set [2] was determined as 2180 nM.

On to `Cc1nn(-c2ccccc2)c2nc(C3CC3)cc(C(=O)N3CCOc4ccccc43)c12`, for which the CC50 at 48 h in data set [1] is above 40000 nM. The EC50 in data set [2] worked out at 1120 nM.

With `CC(C)c1nn(C(C)(C)C)c2nc(C3CC3)cc(C(=O)N3CCOc4ccccc43)c12`, the CC50 at 48 h in data set [1] is above 40000 nM. The EC50 in data set [2] is 580 nM.

Consider `Cc1nn(C(C)(C)C)c2nc(C3CC3)cc(C(=O)N3CCOc4cnccc43)c12`, for which the EC50 in data set [2] turned out to be 2070 nM.

Consider `Cc1nn(C(C)(C)C)c2nc(C3CC3)cc(C(=O)N3CCNc4ccccc43)c12`, for which the logD at 2 h, 7.5 µM in data set [3] is 4.8. For the same compound, in data set [4], the microsomal CLint at 1 µM is 471 µL/min/mg. Also, the CC50 at 48 h in data set [1] was above 40000 nM. Also, the EC50 in data set [2] stood at 181 nM. Also, the solubility (thermodynamic) at 2 h, 200 µM in data set [5] was 3.5 µM (≈ 1.36 µg/mL). In addition, the hepatocyte CLint at 1 µM in data set [6] stood at 123 µL/min/1e6 cells.

Regarding `Cc1nn(C(C)(C)C)c2nc(C3CC3)cc(C(=O)N3CCOc4cccnc43)c12`, in data set [1], the CC50 at 48 h was above 10000 nM. In addition, in data set [2], the EC50 came to 856 nM.

As for `Cc1nn(C(C)(C)C)c2nc(C3CC3)cc(C(=O)N3CCOc4ccc(F)cc43)c12`, in data set [3], the logD at 2 h, 7.5 µM was determined as 5.8. For the same compound, the microsomal CLint at 1 µM in data set [4] was 100 µL/min/mg. Further, the CC50 at 48 h in data set [1] was 9670 nM. In data set [2], the EC50 was 130 nM. The solubility (thermodynamic) at 2 h, 200 µM in data set [5] was 2.8 µM (≈ 1.14 µg/mL). In data set [6], the hepatocyte CLint at 1 µM was determined as 22 µL/min/1e6 cells.

Turning to `Cc1cc(C(=O)N2CCOc3ccccc32)c2c(C)nn(C(C)(C)C)c2n1`, the CC50 at 48 h in data set [1] was above 40000 nM. For the same compound, in data set [2], the EC50 worked out at 5630 nM.

For the compound `CC(C)(C)n1nc(Br)c2c(C(=O)N3CCOc4ccccc43)cc(C3CC3)nc21`, in data set [1], the CC50 at 48 h is above 40000 nM. Besides, in data set [2], the EC50 amounted to 155 nM.

For the compound `COc1ccccc1NC(=O)c1cc(C2CC2)nc2c1c(C)nn2C(C)(C)C`, in data set [1], the CC50 at 48 h was above 40000 nM. In data set [2], the EC50 is 2300 nM.

`CC(C)(C)n1nc(Cl)c2c(C(=O)N3CCOc4ccccc43)cc(C3CC3)nc21`: in data set [3], the logD at 2 h, 7.5 µM is above 5.9. Further, in data set [4], the microsomal CLint at 1 µM worked out at 155 µL/min/mg. In data set [1], the CC50 at 48 h was above 40000 nM. Besides, the EC50 in data set [2] is 260 nM. In data set [5], the solubility (thermodynamic) at 2 h, 200 µM is below 2.5 µM. Also, the hepatocyte CLint at 1 µM in data set [6] was found to be 34 µL/min/1e6 cells.

Take `Cc1cc(C)c(NC(=O)c2cc(C)nc3c2c(C)nn3C)c(Cl)c1`: in data set [1], the CC50 at 48 h is above 40000 nM. Moreover, the EC50 in data set [2] was determined as 170 nM.

`COc1ccccc1CNC(=O)c1cc(C2CC2)nc2c1c(C)nn2C(C)(C)C`: in data set [1], the CC50 at 48 h is above 40000 nM. Also, in data set [2], the EC50 came to 463 nM.

For `Cc1nn(C(C)(C)C)c2nc(C3CC3)cc(C(=O)N3CCN(C)CC3)c12`, in data set [1], the CC50 at 48 h was above 40000 nM. For the same compound, the EC50 in data set [2] turned out to be 545 nM.

On to `Cc1cc(Nc2ccc(S(F)(F)(F)(F)F)cc2)n2nc(C(C)(F)F)nc2n1` [DSM-265], for which the half-maximal effective concentration (EC50) amounted to 6 nM in data set [7] and 100 nM in data set [8].

As for `COc1cc(C(=O)N2CCOc3ccccc32)c2c(C)nn(C(C)(C)C)c2n1`, the 50% cytotoxic concentration (CC50) at 48 h in data set [1] is above 40000 nM. Moreover, in data set [2], the EC50 was 1040 nM.

`COc1ccccc1CNC(=O)c1cc(C2CC2)nc2c1cnn2C(C)C`: in data set [1], the CC50 at 48 h was above 40000 nM. Further, the EC50 in data set [2] came to 680 nM.

For the compound `Cc1cc(C)c(NC(=O)c2cc(C3CC3)nc3c2c(C)nn3C(C)(C)C)c(Cl)c1`, in data set [1], the CC50 at 48 h is above 40000 nM. The EC50 in data set [2] was found to be 1130 nM.

As to `CCc1nn(C(C)(C)C)c2nc(C3CC3)cc(C(=O)N3CCOc4ccccc43)c12`, the CC50 at 48 h in data set [1] is above 10000 nM. In addition, in data set [2], the EC50 was determined as 288 nM.

Compound `Cc1nn(C(C)C)c2nc(C3CC3)cc(C(=O)N3CCOc4ccccc43)c12` yielded a logD at 2 h, 7.5 µM in data set [3] of 4.5. For the same compound, in data set [4], the microsomal CLint at 1 µM came to 424 µL/min/mg. The CC50 at 48 h in data set [1] is above 40000 nM. Further, the 50% effective concentration (EC50) in data set [2] was 310 nM. Besides, in data set [5], the thermodynamic solubility at 2 h, 200 µM was 10 µM (≈ 3.76 µg/mL). Moreover, the hepatocyte CLint at 1 µM in data set [6] was above 92 µL/min/1e6 cells.

In the case of `Cc1nn(C(C)(C)C)c2nc(C3CC3)cc(C(=O)N3CCOCC3)c12`, the CC50 at 48 h in data set [1] is above 40000 nM. Moreover, the EC50 in data set [2] was determined as 2330 nM.

`Cc1nn(C(C)(C)C)c2nc(C3CC3)cc(C(=O)Nc3nnc4ccccn34)c12`: the EC50 in data set [2] is above 10000 nM.

Turning to `Cc1nn(C(C)(C)C)c2nc(C(C)C)cc(C(=O)N3CCOc4ccccc43)c12`, in data set [1], the CC50 at 48 h is above 40000 nM. In data set [2], the EC50 is 740 nM.

As a reminder, the CC50 is the concentration at which the toxic effect on the cells reaches its halfway point. For orientation: EC50 means the concentration at which the effect is half-maximal. A word on the logD: it is lipophilicity at a set pH, counting ionised and neutral species. The solubility (thermodynamic) is the concentration in solution at equilibrium with solid.
